Laboratory results: patent US10858331B1, “Ester nitrates derivatives of aromatic aldehydes with multiple pharmalogic properties to treat sickle cell disease” (VIRGINIA COMMONWEALTH UNIVERSITY, priority 2013, dated 2020)

What was measured:
SS cells = assay: In vitro RBC anti-sickling (morphological) study with SS cells; format: cell-based, human; conditions: SS cells, 1 h air then 4% O2, 37° C., 5 h; for inhibition at 500 µM / inhibition at 1000 µM / inhibition at 2000 µM / inhibition at 5000 µM: Homo sapiens, read-out: Inhibition of sickled cells; for inhibition at 1000 µM: 1.0 mM; for inhibition at 2000 µM: 2.0 mM; for inhibition at 5000 µM: 5.0 mM
Description: In vitro RBC morphological (anti-sickling) analysis was conducted at the Children's Hospital of Philadelphia (by Drs. Toshio Asakura and Osheiza Abdulmalik). The anti-sickling effects of 5HMF, TD-7 HCl, TD-7, TD-1, and TD-7-1 were studied by incubating suspensions of SS cells in the absence or presence of three different concentrations of the effectors in the presence of air for 1 h at 37° C. followed by incubation under 4% oxygen at 37° C. for 5 h. All samples were pre-incubated for 1 h with various compounds and then incubated under 4% O2 for 5 h. […] Table 5 represents the concentrations of the effectors along with the % inhibition of sickling cells. The hemolysates that had been prepared from SS cells after incubation with test compounds were also subjected to cation-exchange HPLC as previously reported (Abdulmalik et al., 2005).

Hb [1] = molecular target: T1, Hb (Homo sapiens, UniProt P68871+P69905); assay: Time-dependent OEC study with whole blood; format: cell-based; conditions: 0.5 mM; for P50: whole blood (Hct~34%); for N (Hill coefficient) / ΔP50: whole blood
T1 construct: normal whole blood (AA); from tissue; host or cells: normal whole blood (AA), red blood cells
Description: (§1) Studies were performed on compounds TD-7, TD-7-1, TD-8, TD-8-1, TD-9 and TD-9-1 using 100 mM stock solution in DMSO and normal whole blood (AA). TD-7, TD-8 and TD-9 are compounds with a hydroxymethyl group on the pyridine ring, while TD-7-1, TD-8-1 and TD-9-1 are the respective nitrate ester derivatives. The whole blood samples had hematocrit values ranging from 29-36%, and cell-free purified Hb of 10-12 g/dL in the absence or presence of effectors solubilized in DMSO at 2 mM or in some cases with varying compound concentration. The blood samples were incubated in an IL 237 tonometer (Instrumentation Laboratories, Inc., Lexington, Mass.) for about 5-7 min at 37° C. against a gas mixture containing O2 concentrations of 0.804%, 2.935% and 5.528% and allowed to equilibrate at O2 tensions of 6, 20 and 40 mmHg. After equilibration, the sample was removed via syringe and aspirated into a ABL 700 series table top automated blood gas analyzer (Radiometer America, Inc., Westlake, Ohio) to determine total hemoglobin (tHb), hematocrit (Hct), pH, pCO2, partial pressure of oxygen (pO2), and the Hb oxygen saturation values (sO2). Similar procedures were followed for concentration and time dependence studies. The measured values of pO2 and sO2 at each oxygen saturation level were then subjected to a non-linear regression analysis using the program Scientist (Micromath, Salt Lake City, Utah) with the following equation: […]
All samples were pre-incubated with whole blood (Hct˜34%) with the specified compounds 0.5 mM concentrations for the specified time. The control experiment without test compound (P50 (control)) contains the same concentration of DMSO used to solubilize the test solution (P50 (sample)).

Hb [2] = molecular target: T1, Hb; assay: Oxygen equilibrium curve (OEC) study with normal whole blood (AA); format: cell-based; conditions: for ΔP50: versus DMSO control
Description: as §1
This equation was used to calculate P50 and Hill coefficient (N) values. Corresponding control experiments without the test compound (P50control) but containing DMSO were also performed.

cell-free Hb = molecular target: T2, cell-free Hb (Homo sapiens, UniProt P68871+P69905); assay: OEC study with normal cell-free Hb; format: biochemical; conditions: cell-free Hb 12 mg/mL, 2 mM compound; for N (Hill coefficient) / P50: n = 1; for ΔP50: versus control P50 12.5
T2 construct: Hemoglobin was prepared from centrifuging human blood; from tissue; host or cells: human blood (red cells lysed, Hb purified on DEAE sephacel)
Description: as §1
Hemoglobin was prepared from centrifuging human blood at 2500 rpms for 20 min at 4° C. The supernatant solution, debris and plasma were discarded from the centrifuge bottles, leaving behind RBCs. The RBCs were washed thrice with an excess volume of 0.9% NaCl, and once with 1.0% NaCl, each time centrifuging and discarding the supernatant solution. The RBCs were pooled together into a chilled flask and hemolyzed to free Hb by adding 1-2 volume excess of 50 mM Tris buffer, pH 8.6 (containing EDTA). The mixture was allowed to stand in ice for 30 min with occasional stirring. The Hb solution was centrifuged at 10,000 rpm for 2 h at 4° C. The supernatant Hb solution was pooled into a chilled flask and NaCl (40-60 mg/mL Hb solution) was slowly added with stirring. Hemoglobin solution was centrifuged at 10,000 rpm for 2 h at 4° C. to remove any cell stroma remnants. The clear supernatant Hb solution was pooled into a chilled flask and the “syrupy” pellet was discarded. Hemoglobin solution was dialyzed against 50 mM Tris buffer, pH 8.6 (containing EDTA) at 4° C. to remove NaCl and/or other low molecular weight impurities. Strips of standard cellulose dialysis tubing that had been washed 3-4 times and boiled for 10 min in deionized water were used for dialysis. The dialyzed Hb was further purified by ion-exchange chromatography using DEAE sephacel to exclude 2,3-DPG. The resin was equilibrated with 50 mM Tris buffer, pH 8.6, and the Hb solution was run through the column with 50 mM Tris buffer, pH 8.6 (containing EDTA). The pooled fractions were concentrated with an Amicon stirred cell (Amicon, Model 402), to a final HbA concentration of about 80-120 mg/mL. Concentrated HbA was stored at −80° C.
As a result of the low left-shifting activities of TD-8 and TD-9, as well as the nitrate ester derivatives, we further evaluated the activity of the compounds TD-1, TD-7, TD-7-1, TD-8, and TD-9 using cell-free Hb (devoid of any proteins, enzymes, plasma and cell membranes) to determine whether plasma protein or RBC membrane could have any effect on compound biological activity. Previous studies have shown limited effect of plasma protein and RBC membrane on SHMF activity. The same tonometry procedure used on whole blood was used with the cell-free hemoglobin using 2 mM compound and 12 mg/mL of Hb.

[3] = 2 mM compound, 1.5 h incubation
[4] = 2 mM compound, 1.5 h incubation, 37° C.

T1 sequence (P69905 2-142 limits assumed): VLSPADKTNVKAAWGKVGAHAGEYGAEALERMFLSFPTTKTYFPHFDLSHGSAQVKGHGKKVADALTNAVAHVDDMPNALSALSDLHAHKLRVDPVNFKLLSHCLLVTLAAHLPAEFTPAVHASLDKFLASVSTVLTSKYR
T1 sequence (P68871 2-147 limits assumed): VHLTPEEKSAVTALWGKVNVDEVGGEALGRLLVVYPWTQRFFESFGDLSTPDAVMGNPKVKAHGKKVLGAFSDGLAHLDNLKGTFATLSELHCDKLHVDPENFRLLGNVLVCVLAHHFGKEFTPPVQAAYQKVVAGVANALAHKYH
T2 sequence (P69905 2-142 limits assumed): as the sequence (P69905 2-142 limits assumed) above
T2 sequence (P68871 2-147 limits assumed): as the sequence (P68871 2-147 limits assumed) above

Compound	inhibition at 500 µM (SS cells; 0.5 mM) [%]	inhibition at 1000 µM (SS cells) [%]	inhibition at 2000 µM (SS cells) [%]	inhibition at 5000 µM (SS cells) [%]	P50 (Hb [1]; incubation 1 h) [mmHg]	P50 (Hb [1]; incubation 2 h) [mmHg]	P50 (Hb [1]; incubation 4 h) [mmHg]	P50 (Hb [1]; incubation 6 h) [mmHg]	P50 (Hb [1]; incubation 10 h) [mmHg]	P50 (Hb [1]; incubation 12 h) [mmHg]	N (Hill coefficient) (Hb [1]; incubation 1 h)	ΔP50 (Hb [1]; incubation 1 h) [mmHg]	N (Hill coefficient) (Hb [1]; incubation 2 h)	ΔP50 (Hb [1]; incubation 2 h) [mmHg]	N (Hill coefficient) (Hb [2]; [3])	P50 (Hb [2]; [4])	ΔP50 (Hb [2]; [3]) [mmHg]	N (Hill coefficient) (cell-free Hb)	P50 (cell-free Hb) [mmHg]	ΔP50 (cell-free Hb) [mmHg]	further results
COc1ccc(OCc2cccc(CO)n2)c(C=O)c1 [TD-7, 2-((6-(Hydroxymethyl)pyridin-2-yl)methoxy)-5-methoxybenzaldehyde]	95	95	100	100	28.2 ± 0.9	28.2 ± 0.8	28.8 ± 0.6	29.1 ± 0.6	30.6 ± 1.0	31.1 ± 0.7	2.2 ± 0.2	−4.5	2.1 ± 0.1	−4.8	1.3 ± 0.3^c†	14.3 ± 4.3^c† mmHg	−17.0	1.8	7.6	−4.9	N (Hill coefficient) (Hb [1]; incubation 4 h): 2.1 ± 0.1; ΔP50 (Hb [1]; incubation 4 h): −4.3 mmHg; N (Hill coefficient) (Hb [1]; incubation 6 h): 2.0 ± 0.2; ΔP50 (Hb [1]; incubation 6 h): −5.1 mmHg; N (Hill coefficient) (Hb [1]; incubation 10 h): 2.0 ± 0.1; ΔP50 (Hb [1]; incubation 10 h): −4.5 mmHg; N (Hill coefficient) (Hb [1]; incubation 12 h): 2.0 ± 0.2; ΔP50 (Hb [1]; incubation 12 h): −5.0 mmHg; N (Hill coefficient) (Hb [2]; 0.1 mM compound): 2.5^d*; P50 (Hb [2]; 0.1 mM compound): 30.1^d* mmHg; ΔP50 (Hb [2]; 0.1 mM compound): −0.5 mmHg; N (Hill coefficient) (Hb [2]; 0.5 mM compound): 2.1^d*; P50 (Hb [2]; 0.5 mM compound): 25.9^d* mmHg; ΔP50 (Hb [2]; 0.5 mM compound): −4.7 mmHg; N (Hill coefficient) (Hb [2]; 1 mM compound): 1.7^d*; P50 (Hb [2]; 1 mM compound): 23.2^d* mmHg; ΔP50 (Hb [2]; 1 mM compound): −7.4 mmHg
COc1ccc(C=O)cc1OCc1cccc(CO)n1 [TD-8, 3-((6-(Hydroxymethyl)pyridine-2-yl)methoxy)-4-methoxybenzaldehyde]	14	20	38												1.9 ± 0.1^c†	25.9 ± 2.5^c† mmHg	−5.4	1.9	7.6	−4.9	
O=Cc1ccc(CO)o1 [Compound 5HMF, 5-(hydroxymethyl) furfural, reference compound]	4	17	35	75	29.8 ± 0.2	29.2 ± 0.3	29.2 ± 0.1	30.0 ± 0.1	31.8 ± 0.1	32.8 ± 0.1	2.2 ± 0.1	−2.9	2.2 ± 0.1	−3.8	1.8 ± 0.1^c†	20.2 ± 2.0^c† mmHg	−11.1	2.0	8.3	−4.2	N (Hill coefficient) (Hb [1]; incubation 4 h): 2.1 ± 0.1; ΔP50 (Hb [1]; incubation 4 h): −3.9 mmHg; N (Hill coefficient) (Hb [1]; incubation 6 h): 2.1 ± 0.1; ΔP50 (Hb [1]; incubation 6 h): −4.2 mmHg; N (Hill coefficient) (Hb [1]; incubation 10 h): 2.1 ± 0.1; ΔP50 (Hb [1]; incubation 10 h): −3.3 mmHg; N (Hill coefficient) (Hb [1]; incubation 12 h): 2.0 ± 0.1; ΔP50 (Hb [1]; incubation 12 h): −3.3 mmHg
COc1cc(C=O)ccc1O [vanillin, reference compound]				12																	
COc1ccc(OCc2cccnc2)c(C=O)c1 [INN-312, reference compound]																					Inhibition of sickled cells (SS cells; 0.5 mM): 15%
COc1ccc(C=O)c(OCc2cccc(CO)n2)c1 [TD-9, 2-((6-(Hydroxymethyl)pyridin-2-yl)methoxy)-4-methoxybenzaldehyde]	26	35	57												1.6 ± 0.3^c†	21.1 ± 1.2^c† mmHg	−10.2	1.7	6.8	−5.7	
